# Measurements taken from patent publication US20240366644A1, “ANTI-INFLAMMATORY APPLICATION OF GINSENOSIDE RD” (priority 2022, published 2024).
# Columns and labels:
# [1] = system: influenza virus-infected mice; assay: TNF-α and IL-6 in serum and lung tissues of influenza virus-infected mice; type: in vivo, ICR mice
# Protocol: A lump of absorbent cotton was put into a beaker of 200-300 mL, and then poured with an appropriate amount of ether (till the absorbent cotton was wetted). The beaker filled with the absorbent cotton was inverted, and added with the mice for anesthesia. When the mice were extremely excited and then obviously weak, that is, the anesthesia depth was moderate, the mice were taken out. The ether-anesthetized mice were placed on their backs, with the mouse head facing upward, and then were subjected to intranasal infection. A diluted influenza virus was added to nostrils at 0.03 mL/nostril. A blank group was administrated with normal saline, instead of a virus suspension.
# The mice were randomly divided into four groups, that is, drug groups (10 mg/kg, 5 mg/kg), a model group, and a blank group were administrated by routine gavage on the day before infection, once a day; and the blank group and the model group were perfused with the equal volume of normal saline.
# On the Day 1, Day 3, Day 5 and Day 7 after influenza virus infection, venous blood was collected from the plexus ophthalmicus, and blood from mice in each group was preserved, subjected to serum separation, and stored in a refrigerator for later use.
# According to the instructions of a test kit, various detection and analysis were carried out, and TNF-α and IL-6 concentrations were calculated based on the standard detection and standard curve plotting.
# On the Day 1, Day 3, Day 5 and Day 7 after influenza virus infection, after the mice were killed by bleeding from the eyeballs, the whole lungs were picked, homogenized in a homogenizer according to a ratio of lung weight (g):normal saline (mL)=1:9, and centrifuged; and a supernatant was stored in the refrigerator for later use. According to the instructions of a test kit, various detection and analysis were carried out, and TNF-α and IL-6 concentrations were calculated based on the standard detection and standard curve plotting.
# [2] = system: mice with acute lung injury; assay: Inflammatory factors (ELISA) in lung tissue and alveolar lavage fluid of mice with LPS acute lung injury; type: in vivo, Balb/c mice; conditions: for IL-1β in alveolar lavage fluid / IL-1β in lung tissue / IL-6 in alveolar lavage fluid / IL-6 in lung tissue / IL-18 in alveolar lavage fluid / IL-18 in lung tissue / TNF-α in alveolar lavage fluid / TNF-α in lung tissue: 24 h after modeling
# Protocol: Balb/c male mice, weighing 20-22 g, were randomly divided into five groups according to body weights, with eight mice in each group: a blank control group (propylene glycol-0.5% carboxymethylcellulose sodium), a model group (LPS, 15 mg/kg), a ginsenoside Rd low-dose group (10 mg/kg), a ginsenoside Rd high-dose group (20 mg/kg), and a Dexamethasone group (5 mg/kg). Mice in each group were intraperitoneally injected; after 1 h of administration, except for the blank control group, the mice in each group were intratracheally instilled with 20 μg of LPS for modeling; and the blank control group was intratracheally instilled with an equal volume of PBS.
# After 1 h of administration, a mouse ALI model was established; each mouse was intraperitoneally injected with sodium pentobarbital at 30 mg/kg, anesthetized and fixed on an operating table dorsally; skin preparation was carried out on the neck; the skin was incised to expose the trachea; 20 μg of LPS was instilled into the trachea using a microglass syringe; and then the mouse was gently rotated head up on the operating table, such that the instilled liquid was evenly distributed in the mouse lungs, and the skin incision was sutured.
# After 24 h of modeling, anesthetized mice were intraperitoneally injected with sodium pentobarbital at 30 mg/kg; lung tissues of the mice were taken and rinsed repeatedly in pre-cooled normal saline; the lung tissues were blood-removed, wiped with filter paper, weighed, and added with normal saline according to a ratio of 1:9 (W:V=1 g:9 ml); a tissue homogenate was prepared with a homogenization machine under an ice water bath; and a supernatant of mouse lung tissue homogenate was taken.
# The mouse was anesthetized, and the trachea was separated; the whole lung was lavaged with 0.5 ml of pre-cooled normal saline, stayed for 1 min, and slowly pumped back with a syringe, and this process was repeated three times; and BLAF was collected, and centrifuged for 15 min at 4° C. and 1600 rpm/min.
# In strict accordance with the operating instructions of an enzyme-linked immunosorbent assay kit (ELISA), the contents of TNF-α, IL-1β, IL-6 and IL-18 in the supernatant of mouse lung tissue homogenate and the BLAF supernatant were detected.
# [3] = system: mice with chronic bronchial asthma; assay: Serum IL-4 and INF-γ in OVA-sensitised mice with chronic bronchial asthma; type: in vivo, BALB/c mice; conditions: for IL-4 in serum / INF-γ in serum: seven days, 24 h after the last excitation
# Protocol: After adaptive feeding (20-25° C., a humidity of 50-60%) for one week, the mice were randomly divided into a blank group, a model group, a ginsenoside Rd high-dose group, and a ginsenoside Rd low-dose group, with ten […] in each group.
# Except for the blank group, the mice in the other groups were intraperitoneally injected with 0.2 ml of sensitization solution (containing 50 μg of OVA) on the Day 1, Day 8 and Day 15, respectively. Starting on Day 22, the mice in each group were placed in a nebulizer and inhaled with 2% OVA for exciting asthma. This inhalation was performed once a day, 45 min each time, for seven consecutive days.
# Administration by gavage was performed 30 min before each asthma stimulation, once a day for seven consecutive days. The blank group and the model group were administrated with normal saline by gavage, the high-dose group was administrated with 10 mg/kg ginsenoside Rd by gavage, and the low-dose group was administrated with 5 mg/kg ginsenoside Rd by gavage.
# 24 h after the last excitation, the mice were sampled, blood was collected from the eyeballs and separated to obtain serum, and IL-4 and INF-γ in the serum were detected.
# [4] = high-dose 10 mg/kg gavage once a day, 1 d after infection
# [5] = high-dose 10 mg/kg gavage once a day, 3 d after infection
# [6] = high-dose 10 mg/kg gavage once a day, 5 d after infection
# [7] = high-dose 10 mg/kg gavage once a day, 7 d after infection
# [8] = low-dose 5 mg/kg gavage once a day, 1 d after infection
# [9] = low-dose 5 mg/kg gavage once a day, 3 d after infection
# [10] = low-dose 5 mg/kg gavage once a day, 5 d after infection
# [11] = low-dose 5 mg/kg gavage once a day, 7 d after infection
# [12] = 10 mg/kg intraperitoneal 1 h before LPS
# [13] = 20 mg/kg intraperitoneal 1 h before LPS
# [14] = high-dose 10 mg/kg gavage once a day
# [15] = low-dose 5 mg/kg gavage once a day
structure (smiles),measurement,setting,value
"CC(C)=CCC[C@](C)(O[C@@H]1O[C@H](CO)[C@@H](O)[C@H](O)[C@H]1O)[C@H]1CC[C@]2(C)[C@@H]1[C@H](O)C[C@@H]1[C@@]3(C)CC[C@H](O[C@@H]4O[C@H](CO)[C@@H](O)[C@H](O)[C@H]4O[C@@H]4O[C@H](CO)[C@@H](O)[C@H](O)[C@H]4O)C(C)(C)[C@@H]3CC[C@]12C [Ginsenoside Rd, ginsenoside Rd]",Lung tissue IL-6,[1]; [4],43.56 ± 3.46 pg/mL
same,Lung tissue TNF-α,[1]; [4],31.34 ± 3.25 pg/mL
same,Serum IL-6,[1]; [4],46.21 ± 3.03 pg/mL
same,Serum TNF-α,[1]; [4],26.53 ± 1.02 pg/mL
same,Lung tissue IL-6,[1]; [5],43.47 ± 2.58 pg/mL
same,Lung tissue TNF-α,[1]; [5],32.09 ± 2.51 pg/mL
same,Serum IL-6,[1]; [5],46.52 ± 2.23 pg/mL
same,Serum TNF-α,[1]; [5],26.83 ± 2.04 pg/mL
same,Lung tissue IL-6,[1]; [6],42.39 ± 3.41 pg/mL
same,Lung tissue TNF-α,[1]; [6],31.97 ± 2.94 pg/mL
same,Serum IL-6,[1]; [6],45.79 ± 3.19 pg/mL
same,Serum TNF-α,[1]; [6],26.99 ± 1.55 pg/mL
same,Lung tissue IL-6,[1]; [7],42.21 ± 2.64 pg/mL
same,Lung tissue TNF-α,[1]; [7],30.08 ± 3.28 pg/mL
same,Serum IL-6,[1]; [7],45.23 ± 2.95 pg/mL
same,Serum TNF-α,[1]; [7],25.88 ± 1.66 pg/mL
same,Lung tissue IL-6,[1]; [8],46.86 ± 2.76 pg/mL
same,Lung tissue TNF-α,[1]; [8],32.98 ± 2.27 pg/mL
same,Serum IL-6,[1]; [8],47.15 ± 2.31 pg/mL
same,Serum TNF-α,[1]; [8],28.32 ± 1.21 pg/mL
same,Lung tissue IL-6,[1]; [9],46.29 ± 2.05 pg/mL
same,Lung tissue TNF-α,[1]; [9],34.72 ± 2.44 pg/mL
same,Serum IL-6,[1]; [9],47.22 ± 2.57 pg/mL
same,Serum TNF-α,[1]; [9],28.19 ± 1.27 pg/mL
same,Lung tissue IL-6,[1]; [10],46.21 ± 2.73 pg/mL
same,Lung tissue TNF-α,[1]; [10],32.14 ± 2.16 pg/mL
same,Serum IL-6,[1]; [10],46.62 ± 2.01 pg/mL
same,Serum TNF-α,[1]; [10],28.07 ± 1.43 pg/mL
same,Lung tissue IL-6,[1]; [11],46.52 ± 3.02 pg/mL
same,Lung tissue TNF-α,[1]; [11],30.86 ± 3.05 pg/mL
same,Serum IL-6,[1]; [11],46.59 ± 3.46 pg/mL
same,Serum TNF-α,[1]; [11],27.94 ± 1.16 pg/mL
same,inflammatory factors TNF-α and IL-6 after influenza virus infection,"[1]; mouse, in vivo",could down-regulate the related inflammatory factors
same,IL-1β in alveolar lavage fluid,[2]; [12],79.63 ± 21.33 ng/L
same,IL-1β in lung tissue,[2]; [12],80.23 ± 18.08 ng/L
same,IL-6 in alveolar lavage fluid,[2]; [12],39.37 ± 9.12 ng/L
same,IL-6 in lung tissue,[2]; [12],84.70 ± 10.84 ng/L
same,IL-18 in alveolar lavage fluid,[2]; [12],81.20 ± 21.27 ng/L
same,IL-18 in lung tissue,[2]; [12],94.03 ± 15.22 ng/L
same,TNF-α in alveolar lavage fluid,[2]; [12],344.09 ± 61.08 ng/L
same,TNF-α in lung tissue,[2]; [12],98.14 ± 14.48 ng/L
same,IL-1β in alveolar lavage fluid,[2]; [13],49.51 ± 6.89 ng/L
same,IL-1β in lung tissue,[2]; [13],30.52 ± 13.42 ng/L
same,IL-6 in alveolar lavage fluid,[2]; [13],29.53 ± 8.99 ng/L
same,IL-6 in lung tissue,[2]; [13],36.81 ± 13.45 ng/L
same,IL-18 in alveolar lavage fluid,[2]; [13],44.64 ± 17.91 ng/L
same,IL-18 in lung tissue,[2]; [13],37.54 ± 15.80 ng/L
same,TNF-α in alveolar lavage fluid,[2]; [13],186.04 ± 75.00 ng/L
same,TNF-α in lung tissue,[2]; [13],46.88 ± 19.52 ng/L
same,"contents of TNF-α, IL-1β, IL-6 and IL-18 in the lung tissues and BLAF",[2]; compared with the model group,significantly reduce
same,"effect on TNF-α, IL-1β, IL-6 and IL-18 contents compared with Dexamethasone","[2]; high-dose group 20 mg/kg, P<0.01",better than that of Dexamethasone
same,IL-4 in serum,[3]; [14],36.11 ± 10.98 pg/mL
same,INF-γ in serum,[3]; [14],102.48 ± 7.81
same,IL-4 in serum,[3]; [15],10.72 ± 16.74 pg/mL
same,INF-γ in serum,[3]; [15],95.34 ± 13.59
same,expression of IL-4,"[3]; mouse, in vivo",reduce the expression of IL-4
same,expression of INF-γ,"[3]; mouse, in vivo",increase the expression of INF-γ
